23 compounds from patent publication US20220289753A1, “SHP2 INHIBITORS” (IRBM S.P.A., priority 2019, published 2022) can be followed below.

Where two headings read alike, the source gives them in different places.

The test system of test [1] is ERK phosphorylation in KYSE-520 cells. Nature of the test: Phospho-ERK cellular assay (Advanced phospho-ERK1/2 (Thr202/Tyr204) TR-FRET kit). The format is cell-based. The following applies: KYSE-520 cells, 2 h at 37° C., TR-FRET, read-out: pERK IC50. The gist of the method:
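KYSE-520 cells were treated 2 h at 37° C with serially diluted compounds, then lysed. Phospho-ERK1/2 (Thr202/Tyr204) was detected by TR-FRET after overnight antibody incubation at room temperature. IC50 came from a four-parameter logistic fit; lower signal reflects greater SHP2 inhibition.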
On the technique in general: Time-resolved FRET reads energy transfer from a long-lived donor to a nearby acceptor.

Test [2] deals with T1, SHP-2 enzyme (Met1-Leu525) (Homo sapiens, UniProt Q06124).
T1 construct: synthetized by Origene, Met1-Leu525, cat #TP750155; purchased Origene TP750155
T1 sequence (Q06124 1-525): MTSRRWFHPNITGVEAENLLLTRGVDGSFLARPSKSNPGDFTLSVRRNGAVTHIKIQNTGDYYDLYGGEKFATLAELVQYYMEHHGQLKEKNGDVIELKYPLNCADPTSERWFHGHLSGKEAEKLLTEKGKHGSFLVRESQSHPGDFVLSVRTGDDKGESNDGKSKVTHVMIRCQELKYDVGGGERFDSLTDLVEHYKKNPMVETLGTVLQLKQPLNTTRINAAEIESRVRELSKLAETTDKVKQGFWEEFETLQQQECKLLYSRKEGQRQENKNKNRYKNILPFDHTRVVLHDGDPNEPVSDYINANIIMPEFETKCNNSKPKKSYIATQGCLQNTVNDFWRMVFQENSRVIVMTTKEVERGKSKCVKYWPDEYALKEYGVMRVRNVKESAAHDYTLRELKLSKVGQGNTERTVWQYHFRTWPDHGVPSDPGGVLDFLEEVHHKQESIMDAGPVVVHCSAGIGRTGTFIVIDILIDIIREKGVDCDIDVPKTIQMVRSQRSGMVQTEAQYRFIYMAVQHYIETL
Nature of the test: SHP2 inhibition enzymatic assay (DiFMUP substrate, IRS1 peptide activation). The format is biochemical. The following applies: SHP2 wt; activated by 500 nM IRS1 peptide; 75 μM DiFMUP substrate. The gist of the method:
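SHP-2 (Met1-Leu525, 0.5 nM final) preincubated 30 min with compounds and IRS1 activating peptide in HEPES pH 7.2 buffer with NaCl, KCl, EDTA, tween-20, 5 mM DTT. DiFMUP then added for 30 min at room temperature and fluorescence read. IC50 from four-parameter logistic fit of % inhibition.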

For the compound `Nc1nccc(Sc2cnc3[nH]c(N4CCC5(CC4)Cc4ncccc4[C@H]5N)cc3n2)c1Cl` [Example 267, (S)-1′-(2-((2-amino-3-chloropyridin-4-yl)thio)-5H-pyrrolo[2,3-b]pyrazin-6-yl)-5,7-dihydrospiro[cyclopenta[b]pyridine-6,4′-piperidin]-5-amine], the IC50 in test [1] (Homo sapiens, KYSE-520, 2 h) was under 1000 nM; in test [2], under 500 nM.

Take `Cc1nc2nc(N3CCC(C)(N)CC3)[nH]c2nc1Sc1cccc(Cl)c1Cl` [Example 133, 1-(5-((2,3-dichlorophenyl)thio)-6-methyl-1H-imidazo[4,5-b]pyrazin-2-yl)-4-methylpiperidin-4-amine]: the IC50 in test [1] (Homo sapiens, KYSE-520, 2 h) was over 5000 nM; in test [2], under 500 nM.

In the case of `N[C@@H]1c2cccc(F)c2CC12CCN(c1nc3nc(Sc4ccncc4Cl)cnc3[nH]1)CC2` [Example 207, (S)-1′-(5-((3-chloropyridin-4-yl)thio)-1H-imidazo[4,5-b]pyrazin-2-yl)-4-fluoro-1,3-dihydrospiro[indene-2,4′-piperidin]-1-amine], the IC50 in test [1] (Homo sapiens, KYSE-520, 2 h) is 1000 to 5000 nM; in test [1] it was under 1000 nM; in test [2], under 500 nM.

Turning to `N[C@@H]1c2cc(F)c(F)cc2CC12CCN(c1nc3nc(Sc4ccnc(NC5CC5)c4Cl)cnc3[nH]1)CC2` [Example 189, (S)-1′-(5-((3-chloro-2-(cyclopropylamino)pyridin-4-yl)thio)-1H-imidazo[4,5-b]pyrazin-2-yl)-5,6-difluoro-1,3-dihydrospiro[indene-2,4′-piperidin]-1-amine], the IC50 in test [1] (Homo sapiens, KYSE-520, 2 h) is under 1000 nM; in test [2], under 500 nM.

For `N[C@@H]1c2ccccc2CC12CCN(c1nc3nc(Sc4ccncc4OC(F)(F)F)cnc3[nH]1)CC2` [Example 226, (S)-1′-(5-((3-(trifluoromethoxy)pyridin-4-yl)thio)-1H-imidazo[4,5-b]pyrazin-2-yl)-1,3-dihydrospiro[indene-2,4′-piperidin]-1-amine], the IC50 in test [1] (Homo sapiens, KYSE-520, 2 h) was under 1000 nM; in test [2], under 500 nM.

As to `N[C@H]1c2ccncc2CC12CCN(c1nc3nc(Sc4ccnc(NC5CC5)c4Cl)cnc3[nH]1)CC2` [Example 197, (R)-1′-(5-((3-chloro-2-(cyclopropylamino)pyridin-4-yl)thio)-1H-imidazo[4,5-b]pyrazin-2-yl)-5,7-dihydrospiro[cyclopenta[c]pyridine-6,4′-piperidin]-5-amine], the IC50 in test [1] (Homo sapiens, KYSE-520, 2 h) is 1000 to 5000 nM; in test [2] it was under 500 nM.

For the compound `Cn1cc2cccc(Sc3cnc4[nH]c(N5CCC6(CC5)Cc5ccccc5[C@H]6N)nc4n3)c2n1` [Example 202, (S)-1′-(5-((2-methyl-2H-indazol-7-yl)thio)-1H-imidazo[4,5-b]pyrazin-2-yl)-1,3-dihydrospiro[indene-2,4′-piperidin]-1-amine], the IC50 in test [1] (Homo sapiens, KYSE-520, 2 h) is 1000 to 5000 nM; in test [2], under 500 nM.

Consider `N[C@@H]1c2ccccc2CC12CCN(c1nc3nc(Sc4ccnc(N5CC(O)C5)c4Cl)cnc3[nH]1)CC2` [Example 165, (S)-1-(4-((2-(1-amino-1,3-dihydrospiro[indene-2,4′-piperidin]-1′-yl)-1H-imidazo[4,5-b]pyrazin-5-yl)thio)-3-chloropyridin-2-yl)azetidin-3-ol], for which the IC50 in test [1] (Homo sapiens, KYSE-520, 2 h) was under 1000 nM; in test [2], under 500 nM.

For `Nc1nccc(Sc2cnc3[nH]c(N4CCC5(CC4)Cc4ccccc4[C@H]5N)cc3n2)c1Cl` [Example 265, (S)-1′-(2-((2-amino-3-chloropyridin-4-yl)thio)-5H-pyrrolo[2,3-b]pyrazin-6-yl)-1,3-dihydrospiro[indene-2,4′-piperidin]-1-amine], the IC50 in test [1] (Homo sapiens, KYSE-520, 2 h) was 1000 to 5000 nM; in test [2], under 500 nM.

On to `COc1ncc(CN)cc1Sc1cnc2[nH]c(N3CCC4(CC3)Cc3ccccc3[C@H]4N)nc2n1` [Example 250, (1S)-1′-[5-[5-(aminomethyl)-2-methoxy-pyridin-3-yl]sulfanyl-1H-imidazo[4,5-b]pyrazin-2-yl]spiro[1,3-dihydroindene-2,4′-piperidine]-1-amine], for which the half-maximal inhibitory concentration (IC50) in test [1] (Homo sapiens, KYSE-520, 2 h) was 1000 to 5000 nM; in test [2] it was over 3000 nM.

On to `COc1nnccc1Sc1cnc2[nH]c(N3CCC4(CC3)Cc3ccccc3[C@H]4N)nc2n1` [Example 236, (S)-1′-(5-((3-methoxypyridazin-4-yl)thio)-1H-imidazo[4,5-b]pyrazin-2-yl)-1,3-dihydrospiro[indene-2,4′-piperidin]-1-amine], for which the IC50 in test [1] (Homo sapiens, KYSE-520, 2 h) is over 5000 nM; in test [2] it was 500 to 3000 nM.

On to `CC1(N)CCN(c2nc3nc(Sc4cccc(Cl)c4Cl)ncc3[nH]2)CC1` [Example 144, 1-(2-((2,3-dichlorophenyl)thio)-7H-purin-8-yl)-4-methylpiperidin-4-amine], for which the IC50 in test [1] (Homo sapiens, KYSE-520, 2 h) is over 5000 nM; in test [2], 500 to 3000 nM.

`Cc1c(Sc2cnc3nc(N4CCC5(CC4)Cc4ccccc4[C@H]5N)[nH]c3n2)ccnc1N` [Example 204, (S)-1′-(6-((2-amino-3-methylpyridin-4-yl)thio)-1H-imidazo[4,5-b]pyrazin-2-yl)-1,3-dihydrospiro[indene-2,4′-piperidin]-1-amine]: the IC50 in test [1] (Homo sapiens, KYSE-520, 2 h) was under 1000 nM; in test [2] it was under 500 nM.

For the compound `Nc1cc(Sc2cnc3[nH]c(N4CCC5(CC4)Cc4ccccc4[C@H]5N)nc3n2)c(Cl)c(Cl)n1` [Example 266, (S)-1′-(5-((6-amino-2,3-dichloropyridin-4-yl)thio)-1H-imidazo[4,5-b]pyrazin-2-yl)-1,3-dihydrospiro[indene-2,4′-piperidin]-1-amine], the IC50 was over 5000 nM in test [1] (Homo sapiens, KYSE-520, 2 h) and under 500 nM in test [2].

On to `C[C@@H]1OCC2(CCN(c3nc4nc(Sc5cccnc5C(F)(F)F)cnc4[nH]3)CC2)[C@@H]1N` [Example 96, (3S,4S)-3-methyl-8-(5-((2-(trifluoromethyl)pyridin-3-yl)thio)-1H-imidazo[4,5-b]pyrazin-2-yl)-2-oxa-8-azaspiro[4.5]decan-4-amine], for which the IC50 is 1000 to 5000 nM in test [1] (Homo sapiens, KYSE-520, 2 h) and under 500 nM in test [2].

For `CC(=O)Nc1nccc(Sc2cnc3[nH]c(N4CCC5(CC4)Cc4ccccc4[C@H]5N)nc3n2)c1Cl` [Example 147, (S)-N-(4-((2-(1-amino-1,3-dihydrospiro[indene-2,4′-piperidin]-1′-yl)-1H-imidazo[4,5-b]pyrazin-5-yl)thio)-3-chloropyridin-2-yl)acetamide], the half-maximal inhibitory concentration (IC50) in test [1] (Homo sapiens, KYSE-520, 2 h) is under 1000 nM; in test [2], under 500 nM.

For `N#CC1CN(c2nccc(Sc3cnc4[nH]c(N5CCC6(CC5)Cc5ccccc5[C@H]6N)nc4n3)c2Cl)C1` [Example 191, (S)-1-(4-((2-(1-amino-1,3-dihydrospiro[indene-2,4′-piperidin]-1′-yl)-1H-imidazo[4,5-b]pyrazin-5-yl)thio)-3-chloropyridin-2-yl)azetidine-3-carbonitrile], the IC50 in test [1] (Homo sapiens, KYSE-520, 2 h) is under 1000 nM; in test [2], under 500 nM.

In the case of `Nc1nccc(Sc2cnc3[nH]c(N4CCC5(CC4)Cc4c(F)cccc4[C@H]5N)nc3n2)c1Cl` [Example 206, (S)-1′-(5-((2-amino-3-chloropyridin-4-yl)thio)-1H-imidazo[4,5-b]pyrazin-2-yl)-4-fluoro-1,3-dihydrospiro[indene-2,4′-piperidin]-1-amine], the IC50 is under 1000 nM in test [1] (Homo sapiens, KYSE-520, 2 h) and under 500 nM in test [2].

For `CC1(N)CCN(c2nc3nc(Sc4ccnc5ccccc45)cnc3[nH]2)CC1` [Example 61, 4-methyl-1-(5-(quinolin-4-ylthio)-1H-imidazo[4,5-b]pyrazin-2-yl)piperidin-4-amine], the IC50 in test [1] (Homo sapiens, KYSE-520, 2 h) is 1000 to 5000 nM; in test [2] it was under 500 nM.

Regarding `CC1(N)CCN(c2nc3nc(Sc4ccnc5cccnc45)cnc3[nH]2)CC1` [Example 62, 1-(5-((1,5-naphthyridin-4-yl)thio)-1H-imidazo[4,5-b]pyrazin-2-yl)-4-methylpiperidin-4-amine], the IC50 was 1000 to 5000 nM in test [1] (Homo sapiens, KYSE-520, 2 h) and under 500 nM in test [2].

On to `N[C@@H]1c2ccccc2CC12CCN(c1nc3nc(N4CCCc5ncccc54)cnc3[nH]1)CC2` [Example 249, (S)-1′-(5-(3,4-dihydro-1,5-naphthyridin-1(2H)-yl)-1H-imidazo[4,5-b]pyrazin-2-yl)-1,3-dihydrospiro[indene-2,4′-piperidin]-1-amine], for which the IC50 in test [1] (Homo sapiens, KYSE-520, 2 h) is under 1000 nM; in test [2], under 500 nM.

On to `N[C@@H]1c2ncccc2OC12CCN(c1nc3nc(Sc4ccncc4Cl)cnc3[nH]1)CC2` [Example 163, (R)-1′-(5-((3-chloropyridin-4-yl)thio)-1H-imidazo[4,5-b]pyrazin-2-yl)-3H-spiro[furo[3,2-b]pyridine-2,4′-piperidin]-3-amine], for which the IC50 was over 5000 nM in test [1] (Homo sapiens, KYSE-520, 2 h) and under 500 nM in test [2].

On to `CC1(N)CCN(c2nc3nc(Sc4cccc5cccnc45)cnc3[nH]2)CC1` [Example 88, 4-methyl-1-(5-(quinolin-8-ylthio)-1H-imidazo[4,5-b]pyrazin-2-yl)piperidin-4-amine], for which the half-inhibitory concentration (IC50) in test [1] (Homo sapiens, KYSE-520, 2 h) was over 5000 nM; in test [2] it was under 500 nM.

One may read the IC50 as the midpoint of a concentration-inhibition curve.
